Legend:
[1] = test system: glutamate cysteine ligase modifier subunit (GCLM); assay: Expression of genes controlled by Nrf2 in RAW264.7: GCLM; assay type: cell-based, mouse; conditions: RAW264.7, 25 μM, 20 hours
Experimental: (§1) A mouse macrophage cell line RAW264.7 was seeded on a φ60 mm dish (9×10^5 cells), 2 ml of a D-MEM medium (Invitrogen) supplemented with 10% fetal bovine serum (HyClone) and penicillin-streptomycin (100 units/ml and 100 μg/ml, respectively; Sigma) was added, and the dish was incubated at 37° C. in an atmosphere of 5% CO2 for 2 days. The medium was replaced with a fresh medium containing individual samples and incubation was continued for another 20 hours. Then, the total RNA was prepared using TRIzol (Invitrogen) and purified using a RNeasy Mini kit (Qiagen) and an RNase-free DNase set (Qiagen). Further, cDNA was synthesized from 5 μg of the purified total RNA using a Thermo Script RT-PCR system (Invitrogen), and the amount of mRNA expression of various genes was determined using a FastStart DNA Master SYBR Green I kit (Roche) and a Light Cycler (Roche).
(§2) The amount of expression of the various genes was corrected by the amount of expression of the housekeeping gene PO and calculated as a relative expression level (n=2, mean±standard deviation). […]

catalase 1 (CAT1) = assay: Expression of genes controlled by Nrf2 in RAW264.7: CAT1; assay type: cell-based, mouse; conditions: RAW264.7, 25 μM, 20 hours
Experimental: as §1, §2

Nrf2 = Nrf2 activation in ARE reporter assay system, RAW264.7; assay type: cell-based, mouse; conditions: RAW264.7, 5 μM, 24 hours
Experimental: To construct the reporter plasmid pGL3-mARE3A, a double-stranded oligo DNA with 3 repeats of mouse NQO1-derived ARE (antioxidant response element) to which Nrf2 is believed to bind was constructed and inserted into the MluI-NheI site of the firefly luciferase reporter vector pGL3-promoter vector (available from Promega).
The double-stranded oligo DNA containing AREs was prepared by chemically synthesizing two single-stranded oligo DNAs, 5 ′-[…] G-3′ (SEQ ID NO: 1) and 5′-[…]-3′(SEQ ID NO: 2), and annealing them. Further, DNA sequence analysis confirmed that the product obtained was the plasmid of interest. Next, a mouse macrophage cell line RAW264.7 (available from American Type Culture Collection) was seeded on a 12-well plate (4×10^5 cells/well), 0.8 ml of an RPMI1640 medium (Invitrogen) supplemented with 10% fetal bovine serum (HyClone) and penicillin-streptomycin (100 units/ml and 100 μg/ml, respectively; Sigma) was added, and the plate was incubated at 37° C. in an atmosphere of 5% CO2 overnight. […] The cells were broken using a Dual-Luciferase reporter assay system (Promega) and then firefly luciferase activity and renilla luciferase activity were measured using a luminometer (Luminous CT-9000D, Dia-Iatron). […]

[2] = test system: glucose-6-phosphate dehydrogenase 2 (G6PD2); assay: Expression of genes controlled by Nrf2 in RAW264.7: G6PD2; assay type: cell-based, mouse; conditions: RAW264.7, 25 μM, 20 hours
Experimental: as §1, §2

[3] = test system: mouse macrophage cell line RAW264.7; assay: Suppressive action on cell death by hydrogen peroxide; assay type: cell-based; conditions: RAW264.7, 25 μM, 2 hours
Experimental: A mouse macrophage cell line RAW264.7 (6×10^4 cells/well) was incubated on a 96-well plate in 100 μl of a D-MEM medium (Invitrogen) containing individual samples, 10% fetal bovine serum (HyClone), and penicillin-streptomycin (100 units/ml and 100 μg/ml, respectively; Sigma) at 37° C. in an atmosphere of 5% CO2 overnight. The samples added were isohumulone (IH(F)) and isohumulone (IcH(G)) at a concentration of 25 μM. Hydrogen peroxide (Wako Pure Chemical Industries) was added hereto at a final concentration of 0.8 or 1.0 mM and incubation was continued for another 2 hours. Then, adsorption at 440 nm was measured using a microplate reader (Power Wave 200, Bio-Tek Instruments) with a cell growth reagent WST-1 (Roche Diagnostics). The cell survival rate for each sample was calculated by setting the value without hydrogen peroxide as 100% (n=2, mean±standard variation). As a positive control, 15dPGJ2 (Cayman Chemical) was used.

[4] = test system: NAD(P)H:quinone oxidoreductase (NQO1); assay: Expression of genes controlled by Nrf2 in RAW264.7: NQO1; assay type: cell-based, mouse; conditions: RAW264.7, 25 μM, 20 hours
Experimental: as §1, §2

With `CC(C)=CCC(=O)C1(O)C(O)=C(C(=O)CC(C)C)C(=O)C1CC=C(C)C` (stereo not shown) [IH (F), isohumulone] the “expression of GCLM” value [1] was “augmented the expression”, the “expression of CAT1” value (catalase 1 (CAT1)) was “augmented the expression” and the “Nrf2 activation activity (relative luciferase activity)” value (Nrf2) was “confirmed the activation”. For the same compound, the “expression of G6PD2” value [2] was “augmented the expression”, the “cell death by hydrogen peroxide (cell survival rate)” value ([3]; hydrogen peroxide 0.8 mM) was “suppressed cell death” and the “cell death by hydrogen peroxide (cell survival rate)” value ([3]; hydrogen peroxide 1.0 mM) was “suppressed cell death”. For the same compound, the “expression of NQO1” value [4] was “augmented the expression”.

Reference: patent publication US20070248705A1, “Agents for Activating the Transcription Factor Nrf2 and Foods Having Such Function” (KIRIN BEER KABUSHIKI KAISHA, priority 2004, published 2007)
